Assay results taken from ChEMBL document CHEMBL2303647, “Data associated with the publication PLoS ONE, 8(3), e57888, (2013) PMID: 23505445. Compounds: GSK PKIS; Assays: NIH NCATS”.

Tests used:
[1] = biological target: Luciferin 4-monooxygenase (Photinus pyralis, UniProt P08659)
Description: GSK_PKIS: Inhibition of Firefly Luciferase (Data from PubChem: AID 652016) [NIH NCATS]

[2] = biological target: T1, Coelenterazine h 2-monooxygenase (Renilla reniformis, UniProt P27652)
T1 sequence (P27652 whole entry): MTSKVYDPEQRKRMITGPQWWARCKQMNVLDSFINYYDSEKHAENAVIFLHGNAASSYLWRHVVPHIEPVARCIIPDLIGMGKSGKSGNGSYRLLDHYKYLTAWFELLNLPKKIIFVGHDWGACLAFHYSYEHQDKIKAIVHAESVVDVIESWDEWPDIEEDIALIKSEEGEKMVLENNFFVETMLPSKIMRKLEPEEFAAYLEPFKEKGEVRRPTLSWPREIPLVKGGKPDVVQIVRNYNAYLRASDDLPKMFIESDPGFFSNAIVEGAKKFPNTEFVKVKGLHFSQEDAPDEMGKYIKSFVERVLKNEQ
Description: GSK_PKIS: Inhibition of Sea Pansy Luciferase (Data from PubChem: AID 652015) [NIH NCATS]

Sequence of Luciferin 4-monooxygenase (P08659 whole entry): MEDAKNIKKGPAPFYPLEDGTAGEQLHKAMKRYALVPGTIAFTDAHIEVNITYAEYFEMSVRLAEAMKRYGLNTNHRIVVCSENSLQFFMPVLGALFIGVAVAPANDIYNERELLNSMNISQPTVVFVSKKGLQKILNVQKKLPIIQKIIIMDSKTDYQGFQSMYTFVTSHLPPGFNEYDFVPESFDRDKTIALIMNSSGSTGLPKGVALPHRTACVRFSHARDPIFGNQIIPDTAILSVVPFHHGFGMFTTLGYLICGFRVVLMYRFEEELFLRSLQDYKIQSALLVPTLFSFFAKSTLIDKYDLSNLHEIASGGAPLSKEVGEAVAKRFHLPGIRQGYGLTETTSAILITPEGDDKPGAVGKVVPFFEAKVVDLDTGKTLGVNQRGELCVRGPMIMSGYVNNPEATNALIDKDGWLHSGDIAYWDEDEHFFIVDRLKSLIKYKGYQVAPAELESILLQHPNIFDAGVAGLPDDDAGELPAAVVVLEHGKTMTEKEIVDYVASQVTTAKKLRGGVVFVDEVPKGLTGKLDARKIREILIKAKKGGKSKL

Question: What does the source list for `COc1ccc(-c2nn3ncccc3c2-c2ccnc(Nc3ccc(Cl)c(C(F)(F)F)c3)n2)cc1` [GW829115X]?
Answer: AC50 [1]: Phenotype: Inactive; Curve_Description: None; AC50 [2]: Phenotype: Activator; Curve_Description: None

Question: Which AC50 [1] does the source give for `COc1cccc(/C=N/Nc2ncnc3c2cnn3-c2cccc(OC)c2)c1` [GW829874X] here?
Answer: The AC50 was “Phenotype: Inactive; Curve_Description: None”.

Question: And the AC50 [2]?
Answer: The AC50 was “Phenotype: Inactive; Curve_Description: None”.

Question: How did the AC50 [1] turn out when `COc1cccc(-n2ncc3c(N/N=C/c4ccc(C)cc4)ncnc32)c1` [GW829877X] was run?
Answer: Its AC50 is “Phenotype: Inactive; Curve_Description: None”.

Question: What about the AC50 [2] of the same compound?
Answer: Its AC50 is “Phenotype: Inactive; Curve_Description: None”.

Question: What does the source list for `Cc1ccc2c(-c3ccnc(Nc4cccc(C(F)(F)F)c4)n3)c(-c3ccccc3)nn2n1` [GW829906X]?
Answer: AC50 ([1]; read-out: AC50): 41.1 µM; AC50 [2]: Phenotype: Inactive; Curve_Description: None

Question: With `CN1CCN(C(=O)c2ccc(NC(=O)Nc3ccc(N(C)c4ccnc(Nc5ccc(CS(C)(=O)=O)cc5)n4)cc3)cc2)CC1.Cl` [GW830263A] as the compound, how does the AC50 ([1]; read-out: AC50) read?
Answer: The AC50 was 9.19 µM.

Question: What about the AC50 [2] of the same compound?
Answer: The AC50 was “Phenotype: Inactive; Curve_Description: None”.

Question: Which results are given for `CN(c1ccc(NC(=O)NCCN2CCOCC2)cc1)c1ccnc(Nc2ccc(CS(C)(=O)=O)cc2)n1.Cl` [GW830365A]?
Answer: AC50 ([1]; read-out: AC50): 20.6 µM; AC50 [2]: Phenotype: Inactive; Curve_Description: None

Question: Which AC50 ([1]; read-out: AC50) does the source give for `CN(C)CCNC(=O)Nc1ccc(N(C)c2ccnc(Nc3ccc(CS(C)(=O)=O)cc3)n2)cc1.Cl` [GW830900A] here?
Answer: Its AC50 is 29.1 µM.

Question: And the AC50 [2]?
Answer: Its AC50 is “Phenotype: Inactive; Curve_Description: None”.

Question: What does the source list for `NS(=O)(=O)c1ccc(Nc2cc(-c3cccc(O)c3)n[nH]2)cc1` [GW831090X]?
Answer: AC50 ([1]; read-out: AC50): 20.6 µM; AC50 [2]: Phenotype: Inactive; Curve_Description: None

Question: Which results are given for `NS(=O)(=O)c1ccc(Nc2cc(-c3ccc(O)c(F)c3)n[nH]2)cc1` [GW831091X]?
Answer: AC50 [1]: Phenotype: Inactive; Curve_Description: None; AC50 ([2]; read-out: AC50): 36.6 µM

Question: With `Cc1ccc2c(-c3ccnc(Nc4ccc5c(c4)OCCO5)n3)c(-c3ccc(C(F)(F)F)cc3)nn2n1` [GW832467X] as the compound, how does the AC50 [1] read?
Answer: The AC50 was “Phenotype: Inactive; Curve_Description: None”.

Question: What about the AC50 [2] of the same compound?
Answer: Its AC50 is “Phenotype: Inactive; Curve_Description: None”.

Question: Which results are given for `Cc1ccc2c(-c3ccnc(Nc4ccccc4)n3)c(-c3ccc(F)cc3)nn2n1` [GW833373X]?
Answer: AC50 [1]: Phenotype: Inactive; Curve_Description: None; AC50 [2]: Phenotype: Inactive; Curve_Description: None

Question: `COc1cc(Nc2ncc3c(C)nc(-c4cccc(C(F)(F)F)c4)n3n2)cc(OC)c1OC` [GW837331X] was tested. Which AC50 [1] did it give?
Answer: Its AC50 is “Phenotype: Inactive; Curve_Description: None”.

Question: What about the AC50 [2] of the same compound?
Answer: The AC50 was “Phenotype: Inactive; Curve_Description: None”.

Question: For `COc1cc2ncn(-c3cc(OCc4ccccc4C(F)(F)F)c(C(N)=O)s3)c2cc1OC` [GW843682X], which AC50 [1] is on record?
Answer: The AC50 was “Phenotype: Inactive; Curve_Description: None”.

Question: What about the AC50 [2] of the same compound?
Answer: The AC50 was “Phenotype: Inactive; Curve_Description: None”.

Question: What does the source list for `COc1cc2ncn(-c3cc(OCc4ccccc4Cl)c(C(N)=O)s3)c2cc1OC` [GW852849X]?
Answer: AC50 [1]: Phenotype: Inactive; Curve_Description: None; AC50 [2]: Phenotype: Inactive; Curve_Description: None

Question: With `NC(=O)c1sc(-n2cnc3ccc(C(F)(F)F)cc32)cc1OCc1ccccc1Br` [GW853606X] as the compound, how does the AC50 [1] read?
Answer: Its AC50 is “Phenotype: Inactive; Curve_Description: None”.

Question: What about the AC50 [2] of the same compound?
Answer: Its AC50 is “Phenotype: Inactive; Curve_Description: None”.

Question: How did the AC50 [1] turn out when `NC(=O)c1sc(-n2cnc3cc(C(F)(F)F)ccc32)cc1OCc1ccccc1Br` [GW853609X] was run?
Answer: Its AC50 is “Phenotype: Inactive; Curve_Description: None”.

Question: What about the AC50 [2] of the same compound?
Answer: Its AC50 is “Phenotype: Inactive; Curve_Description: None”.

Question: Which results are given for `Nc1ncc(-c2cccc(S(N)(=O)=O)c2)c2scc(-c3ccc(F)c(Cl)c3)c12` [GW856804X]?
Answer: AC50 [1]: Phenotype: Inactive; Curve_Description: None; AC50 ([2]; read-out: AC50): 36.6 µM

Question: With `COc1cc(Nc2ncc3c(C)nc(-c4cccc(Oc5ccccc5)c4)n3n2)cc(OC)c1OC` [GW861893X] as the compound, how does the AC50 [1] read?
Answer: Its AC50 is “Phenotype: Inactive; Curve_Description: None”.

Question: What about the AC50 [2] of the same compound?
Answer: The AC50 was “Phenotype: Inactive; Curve_Description: None”.

Question: With `O=C(O[C@H]1CN[C@H](C#Cc2cc3ncnc(Nc4ccc(OCc5cccc(F)c5)c(Cl)c4)c3s2)C1)N1CCOCC1` [GW869810X] as the compound, how does the AC50 ([1]; read-out: AC50) read?
Answer: Its AC50 is 20.6 µM.

Question: And the AC50 [2]?
Answer: Its AC50 is “Phenotype: Inactive; Curve_Description: None”.

Question: What does the source list for `Cc1nc(-c2ccccc2)n2nc(NCCCN3CCOCC3)ncc12` [GW874091X]?
Answer: AC50 [1]: Phenotype: Inactive; Curve_Description: None; AC50 [2]: Phenotype: Inactive; Curve_Description: None

Question: For `CCn1c(-c2nonc2N)nc2cncc(C(=O)NCCNC)c21` [GW876790X], which AC50 [1] is on record?
Answer: Its AC50 is “Phenotype: Inactive; Curve_Description: None”.

Question: And the AC50 [2]?
Answer: The AC50 was “Phenotype: Inactive; Curve_Description: None”.

Question: Which AC50 [1] does the source give for `COc1cccc(Nc2nccc(-c3cnn4ncccc34)n2)c1` [PYRAZOLOPYRIDAZINE 1] here?
Answer: Its AC50 is “Phenotype: Inactive; Curve_Description: None”.

Question: What about the AC50 [2] of the same compound?
Answer: The AC50 was “Phenotype: Inactive; Curve_Description: None”.

Question: Which AC50 ([1]; read-out: AC50) does the source give for `COc1cccc(-n2ncc3c(N/N=C/c4ccc(S(C)(=O)=O)cc4)ncnc32)c1` [PYRAZOLOPYRIMIDINE 2] here?
Answer: The AC50 was 18.3 µM.

Question: And the AC50 [2]?
Answer: Its AC50 is “Phenotype: Inactive; Curve_Description: None”.

Question: How did the AC50 [1] turn out when `Fc1ccc(-c2ncn(CCCN3CCOCC3)c2-c2ccncc2)cc1` [SB-210313] was run?
Answer: Its AC50 is “Phenotype: Inactive; Curve_Description: None”.

Question: What about the AC50 [2] of the same compound?
Answer: Its AC50 is “Phenotype: Activator; Curve_Description: None”.
